# Test results published in paper PMC11040934, “PI3Kγδ inhibition suppresses key disease features in a rat model of asthma” (Respiratory Research, 2024).
# What was measured:
# [1] = tested on: Brown Norway rats, OVA sensitised and challenged; experiment: Rat model of allergic asthma: late asthmatic response (Penh, whole body plethysmography); type: in vivo, Brown Norway rat; details: 1-6 hrs after OVA challenge; i.t. dosing
# Protocol: (§1) Male, adult, Brown Norway rats were obtained from Charles River Germany at a body weight range of 250-300 g. Animals were housed in temperature controlled individually ventilated cages in groups of 4 with food and water provided ad libitum. Animals underwent acclimatisation for at least 1 week prior to experimentation. Experiments were performed in accordance with the UK Home Office guidelines for animal welfare based on the Animals (Scientific Procedures) Act of 1986 and the ARRIVE guidelines (Fig. E2).
# Initially a time course study was performed, followed by a characterisation study with compound & clinical comparator. For both studies, rats were sensitised on day 0, 14 and 21 by an intraperitoneal (i.p.) injection of 4 mL/kg (1 mL/rat) of ovalbumin (OVA;100 μg/rat) in Imject™ Alum (20 mg/rat aluminium hydroxide and 20 mg/rat magnesium hydroxide) or sham sensitised (Saline [Sal] in Imject™ Alum). […]
# In both studies, 30 mins post-challenge, rats were placed unrestrained in Perspex plethysmographs connected to bias flow pumps (DSI Europe Ltd), with food and water ad libitum. 55 mins post-challenge, a five mins baseline recording was taken and the average penh and area under the curve (AUC) was recorded at 10 mins intervals for a total duration of 5 hrs and was used for analysis (DSI Europe Ltd).
# [2] = tested on: Brown Norway rats, OVA sensitised and challenged; experiment: Rat model of allergic asthma: BAL cellular inflammation; type: in vivo, Brown Norway rat; details: BAL 24 hrs after OVA challenge; i.t. dosing
# Protocol: as §1
# Initially a time course study was performed, followed by a characterisation study with compound & clinical comparator. For both studies, rats were sensitised on day 0, 14 and 21 by an intraperitoneal (i.p.) injection of 4 mL/kg (1 mL/rat) of ovalbumin (OVA;100 μg/rat) in Imject™ Alum (20 mg/rat aluminium hydroxide and 20 mg/rat magnesium hydroxide) or sham sensitised (Saline [Sal] in Imject™ Alum). On day 28 rats were challenged with 1% (w/v) aerosolised OVA in isotonic saline, or sham challenged with isotonic saline (30 mins).
# Following blood collection, rats underwent tracheostomy and were cannulated. Rats were lavaged and bronchoalveolar lavage (BAL) fluid was collected (2 × 3 mL RPMI, 30 secs, 70% vol. retained). Slides were prepared using 100 μL of neat BAL, centrifuged (700 rpm, 5 mins, RT, low acceleration; Cytospin 2, Shandon, Runcorn, UK). 800 μL of neat BAL was collected and centrifuged (800×g, 10 mins, 4 °C). Supernatant was collected and stored (− 80 °C), and cell pellet was resuspended (200 μL, RPMI), total leukocytes were attained using a Sysmex XP-300 automated cell counter (Sysmex Ltd., Milton Keynes, UK). Remaining BAL was centrifuged (800×g, 10 mins, 4 °C) and supernatant collected and stored (− 80 °C).
# BAL cytospin slides were placed in an automated stainer (Hematek 2000, Ames. Co., USA) and stained with a Modified-Wright stain (Siemens, Germany). Differential cell counts using a light microscope were performed based on morphological criteria were performed to determine percentages of macrophages/monocytes, lymphocytes, neutrophils & eosinophils. Total numbers of each distinct cell type were determined based on total leukocyte numbers.
smiles,measurement,setting,value
Cc1nc(Nc2cccc(N3CCCC3=O)n2)sc1-c1cc2c(c(S(C)(=O)=O)c1)C(=O)N([C@@H](C)C1CC1)C2 [AZD8154],"LAR (Penh, AUC)",[1],statistically significant dose-dependent decrease
same,BAL eosinophils,[2],statistically significant decrease
same,BAL neutrophils,[2],statistically significant decrease
